This note sets out measurements from publication PMC5047949, “Kinetic analysis of the translocator protein positron emission tomography ligand [^18F]GE-180 in the human brain” (European Journal of Nuclear Medicine and Molecular Imaging, 2016).

The nature of this data set: Arterial whole-blood and plasma activity, and parent fraction by HPLC. Format: in vivo, human. The method, then:
Arterial blood activity was measured every second for the first 15 min of the 90-min scan using an automated blood sampling system (ABSS Allog, Mariefred, Sweden) connected to the subject via a 1.5 m × 1.0 mm diameter polytetrafluoroethylene line (blood withdrawal rate 2.5 ml/min). In addition, blood samples (10 mL) were collected manually from the radial artery at 0, 5, 10, 15, 30, 50, 70 and 90 min to assay whole-blood and plasma activity. Plasma was obtained by centrifugation for 3 min at 1,800 g. Activity in whole blood and plasma was measured in a CAPRAC-t well counter over 10 – 60 s. The first 15 min of continuous whole-blood activity was combined with the activity from discrete samples to generate the whole-blood activity curve for use in data modelling. The continuous plasma-to-blood ratio was estimated using a constant model and a total plasma activity curve was obtained by correcting the whole-blood curve for this partition between plasma and blood.
The parent fraction of [^18F]GE-180 was measured by high-performance liquid chromatography (Agilent 1,100 and 1,260 series) of discrete plasma samples (3.5 mL). The parent fraction was fitted to a single exponential plus a constant model. The total plasma activity was multiplied by this parent fraction and then smoothed post peak by fitting to a triexponential function to generate an arterial parent plasma input function. A delay correction of up to +30 s was applied to the input function prior to fitting the kinetic modelling. This was performed to account for delay in the 1.5-m tube (28.3 s) and delay between the radial artery and the brain.

Turning to `CCN(CC)C(=O)[C@H]1CCCc2c1c1c(OC)cccc1n2CC[18F]` [[^18F]GE-180], the “intact parent tracer remaining” value (90 min, plasma) worked out at 70%. For the setting “arterial plasma after i.v. bolus”, the “time of peak concentration in plasma” value is on record as “about 45 s”. Where the note is “constant across subjects”, the plasma-to-blood ratio entry was “about 1.69”. The “polar radioactive metabolites (three) in plasma” value (over the 90 min scanning window) is listed as < 10 % of parent compound.
